Test results as given in US20110039763A1, “TARGETED ANTIMICROBIAL MOIETIES” (C3 JIAN, INC., priority 2009, published 2011).
“Also recorded” adds a separate entry of the source. Square brackets hold non-standard residues; d marks the D form. Ends that are not written are not given here. dOrn = NCCC[C@@H](N)C(=O)O; Aib = CC(C)(N)C(=O)O

system: microorganisms; assay: Targeting peptide binding to target microorganisms (Tables 3, 10, 12); settings: microorganism(s) the targeting peptide binds; binding in aqueous buffers that varied with peptide solubility, preferably 1x PBS

| Substance | Target(s) |
| --- | --- |
| 1T-291 (DMKIIKLYIKILSFLFIKYCNKKLNSVKLKA; Peptide with targeting and/or antimicrobial activity) | A. naeslundii; also recorded: F. nucleatum; also recorded: P. gingivalis; also recorded: T. denticola; also recorded: S. mitis; also recorded: S. mutans; also recorded: S. oralis |
| 1T-215 (VCFKDISVFLSPFRGQEVLFCGKAKHSLIYVIGT; Peptide with targeting and/or antimicrobial activity) | S. sanguinis |
| 1T-304 (STAGEASRRTASEASRRTAAKLRG; Peptide with targeting and/or antimicrobial activity) | P. gingivalis |
| 1T-222 (RIEASLISAIMFSMFNAIVKFLQK; Peptide with targeting and/or antimicrobial activity) | F. nucleatum; also recorded: S. sanguinis |
| 1T-185 (HYHFLLEFGFHKGDYLE; Peptide with targeting and/or antimicrobial activity) | S. mitis; also recorded: S. mutans; also recorded: S. oralis; also recorded: S. salivarious; also recorded: S. sanguinis |
| CHA0 (D[dOrn]KTAA[dOrn]K; not fully specified (bridges)) | P. fluorescens |
| 1T-196 (KPEKEKLDTNTLMKVVNKALSLFDRLLIKFGA; Peptide with targeting and/or antimicrobial activity) | F. nucleatum; also recorded: S. sanguinis |
| 1T-301 (SKLPRVLDASLKL; Peptide with targeting and/or antimicrobial activity) | F. nucleatum; also recorded: S. gordonii; also recorded: S. sanguinis |
| 1T-264 (LEGKFYMAEDFDKTPECFKDYV; Peptide with targeting and/or antimicrobial activity) | S. sanguinis |
| PF-055 (GHVFNGNNKRNL; Peptide with targeting and/or antimicrobial activity) | S. mutans |
| 1T-269 (PLYVAAVEKINTAKKH; Peptide with targeting and/or antimicrobial activity) | F. nucleatum; also recorded: S. mutans; also recorded: S. oralis; also recorded: S. sanguinis |

same assay, conditions: microorganism(s) the targeting peptide binds; binding in aqueous buffers varied with peptide solubility, preferably 1x PBS

| Substance | Target(s) |
| --- | --- |
| PF-246 (QPDEKAEFFDPSLDKVYRHPTFYHIPDGIEHM; Peptide with targeting and/or antimicrobial activity) | S. mutans |
| PF-669 (RADRIESYPADGDRVITLWRNPYR; Peptide with targeting and/or antimicrobial activity) | Mycobacteria spp |
| PF-232 (FDQLYALEREGKLDELLA; Peptide with targeting and/or antimicrobial activity) | S. epidermidis; also recorded: M. luteus |
| PF-490 (RLILVSGNATVQK; Peptide with targeting and/or antimicrobial activity) | S. mutans; also recorded: E. coli |
| PF-259 (LPFSKIGRRVSYKKKDVLKYEQSKTVLNTAQLATV; Peptide with targeting and/or antimicrobial activity) | S. epidermidis; also recorded: P. aeruginosa; also recorded: A. baumannii |
| PF-C285 (FTIIELKKQKIKHGENNKKTAHPLNEPFCARA; Peptide with targeting and/or antimicrobial activity) | A. naeslundii; also recorded: F. nucleatum; also recorded: P. gingivalis; also recorded: S. mutans; also recorded: T. denticola |
| PF-570 (KKFPTEESHIQAVLEFKKLTEHPSG; Peptide with targeting and/or antimicrobial activity) | S. pneumoniae; also recorded: C. jeikeium |
| PF-795 (ALHKSGIQVIADWVPDQIYN; Peptide with targeting and/or antimicrobial activity) | S. mutans |
| AIEGVIKKGACFKLLRHEMF [PF-167] | S. epidermidis and E. coli and C. albicans and MRSA and C. jeikeium and C. jejuni |
| PF-221 (VFDNIDINF; Peptide with targeting and/or antimicrobial activity) | S. epidermidis; also recorded: M. luteus; also recorded: P. aeruginosa |
| PF-213 (MTTGVDFIIEKV; Peptide with targeting and/or antimicrobial activity) | S. epidermidis |
| PF-489 (KVDRVSTTITEKIK; Peptide with targeting and/or antimicrobial activity) | S. mutans |
| PF-281 (SYNTYYNKLIHGQRTPDGM; Peptide with targeting and/or antimicrobial activity) | S. mutans; also recorded: E. coli |
| PF-C045 (FREGMGWPLSNEGSPTAPLPKHRNQV; Peptide with targeting and/or antimicrobial activity) | A. naeslundii; also recorded: T. denticola |
| PF-S026 (TELKYNGEEYLLLTQRDILAVIEK; Peptide with targeting and/or antimicrobial activity) | S. epidermidis and MRSA and C. jeikeium |
| PF-500 (MGIFKEEKIKFIDCKGEEVILKIKIKDIKK; Peptide with targeting and/or antimicrobial activity) | S. mutans; also recorded: E. coli |
| PF-334 (QQYLILDRM; Peptide with targeting and/or antimicrobial activity) | S. epidermidis; also recorded: C. difficile |
| PF-750 (AESSPAKTTA; Peptide with targeting and/or antimicrobial activity) | M. luteus; also recorded: C. jeikeium |
| PF-793 (YTQ[Aib]NNASAYAMLLTNKDTVP; ends and bridges not checked) | S. mutans |
| PF-678 (RDRRWTRRDMYDWLESARV; Peptide with targeting and/or antimicrobial activity) | Mycobacteria spp |

same assay, conditions: peptide binding in aqueous buffers that varied with peptide solubility; preferably 1x PBS

| Substance | Target(s) (microorganism bound by the targeting peptide) |
| --- | --- |
| 1T-20 (PALVDLSNKEAVWAVLDDHS; Peptide with targeting and/or antimicrobial activity) | S. mutans; also recorded: P. aeruginosa |
| 1T-73 (GWWEELLHETILSKFKITKALELPIQL; Peptide with targeting and/or antimicrobial activity) | S. pneumoniae |
| 1T-61 (HATLLPAVREAISRQLLPALVPRG; Peptide with targeting and/or antimicrobial activity) | P. aeruginosa |
| 1T-72 (EPTDGVACKER; Peptide with targeting and/or antimicrobial activity) | P. aeruginosa |
| 1T-34 (AFWLNILLTLLGYIPGIVHAVYIIAKR; Peptide with targeting and/or antimicrobial activity) | S. aureus; also recorded: S. epidermidis; also recorded: C. jeikeium; also recorded: C. xerosis; also recorded: C. striatum; also recorded: P. aeruginosa |
| 1T-45 (WTKPSFTDLRLGFEVTLYFANR; Peptide with targeting and/or antimicrobial activity) | S. aureus; also recorded: S. epidermidis; also recorded: C. striatum; also recorded: P. aeruginosa |
| 1T-58 (CDDLHALERAGKLDALLSA; Peptide with targeting and/or antimicrobial activity) | P. aeruginosa |
| 1T-185 (HYHFLLEFGFHKGDYLE; Peptide with targeting and/or antimicrobial activity) | A. naeslundii; also recorded: F. nucleatum; also recorded: P. gingivalis; also recorded: T. denticola; also recorded: S. gordonii |
| 1T-89 (HEDDKRRGMSVEVLGFEVVQHEE; Peptide with targeting and/or antimicrobial activity) | S. mitis; also recorded: S. mutans |
| 1T-12 (FGNIFKGLKDVIETIVKWTAAK; Peptide with targeting and/or antimicrobial activity) | C. xerosis; also recorded: C. striatum; also recorded: S. epidermidis; also recorded: S. mutans |
| 1T-33 (VRTLTILVIFIFNYLKSISYKLKQPFENNLAQSMISI; Peptide with targeting and/or antimicrobial activity) | S. aureus; also recorded: S. epidermidis; also recorded: C. jeikeium; also recorded: C. xerosis; also recorded: C. striatum; also recorded: P. aeruginosa |
| 1T-51 (GKPKRMPAEFIDGYGQALLAGA; Peptide with targeting and/or antimicrobial activity) | S. aureus; also recorded: P. aeruginosa |
| 1T-22 (VPLDDGTRRPEVARNRDKDRED; Peptide with targeting and/or antimicrobial activity) | S. epidermidis; also recorded: P. aeruginosa |
| 1T-10 (SPAGLPGDGDEA; Peptide with targeting and/or antimicrobial activity) | M. xanthus |
| 1T-105 (GEGLPPPVLHLPPPRMSGR; Peptide with targeting and/or antimicrobial activity) | S. epidermidis; also recorded: S. gordonii; also recorded: S. mitis; also recorded: S. mutans; also recorded: S. oralis |
| 1T-95 (GHLLRVGGRVGGVGGVAGACAQPFGGQ; Peptide with targeting and/or antimicrobial activity) | S. gordonii; also recorded: S. mitis; also recorded: S. mutans; also recorded: S. oralis; also recorded: S. sanguinis |
| 1T-170 (AYGKVFSMDIMLSENDKLIVLRISHHSAWH; Peptide with targeting and/or antimicrobial activity) | P. gingivalis |
| 1T-86 (HRKNPVLGVGRRHRAHNVA; Peptide with targeting and/or antimicrobial activity) | S. mitis; also recorded: S. oralis; also recorded: S. salivarious |
| 1T-107 (SPVPRFTAVGGVSRGSP; Peptide with targeting and/or antimicrobial activity) | A. naeslundii; also recorded: S. epidermidis; also recorded: S. gordonii; also recorded: S. mitis; also recorded: S. mutans; also recorded: S. oralis; also recorded: S. salivarious; also recorded: S. sanguinis |
